Data as given in US9499538B2, “Estrogen receptor modulators and uses thereof” (Seragon Pharmaceuticals, Inc., priority 2012, dated 2016).
One block for each compound: values may come before it.

Key:
ER-α in MCF-7 cells = target: T1, ER-α in MCF-7 cells (Homo sapiens, UniProt P03372); assay: Breast Cancer Cell ER-α In Cell Western Assay (SP1); format: cell-based; details: 4 or 24 hr post compound addition; for Emax: MCF7, SP1 antibody, read-out: ER-α In Cell Western Assay (SP1) Max Response; for DC50: SP1 antibody, read-out: ER-α In Cell Western Assay (SP1) IC50
T1 construct: endogenous in cells; host or cells: MCF-7
T1 sequence (P03372 1-595): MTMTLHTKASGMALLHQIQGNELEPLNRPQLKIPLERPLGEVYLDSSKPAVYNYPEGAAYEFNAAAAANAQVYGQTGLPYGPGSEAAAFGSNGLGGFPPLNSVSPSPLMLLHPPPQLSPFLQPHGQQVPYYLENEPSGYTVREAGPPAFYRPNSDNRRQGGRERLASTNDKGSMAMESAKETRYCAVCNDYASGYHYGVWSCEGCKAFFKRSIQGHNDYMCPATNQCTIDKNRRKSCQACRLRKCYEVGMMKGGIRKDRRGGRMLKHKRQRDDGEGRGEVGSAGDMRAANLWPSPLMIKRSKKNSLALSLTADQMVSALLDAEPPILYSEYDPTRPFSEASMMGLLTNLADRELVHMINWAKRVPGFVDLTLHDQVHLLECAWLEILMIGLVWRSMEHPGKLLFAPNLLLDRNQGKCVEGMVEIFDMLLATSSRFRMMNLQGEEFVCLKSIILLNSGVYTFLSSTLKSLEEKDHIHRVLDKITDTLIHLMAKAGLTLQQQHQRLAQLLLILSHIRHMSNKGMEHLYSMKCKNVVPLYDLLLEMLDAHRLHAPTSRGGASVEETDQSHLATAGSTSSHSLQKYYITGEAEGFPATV
Method: MCF-7 cells were adjusted to a concentration of 200,000 cells per mL in RPMI containing 10% charcoal-stripped FBS and 20 mM HEPES. 16 microliters of the cell suspension (3200 cells) was added to each well of a poly-D-lysine 384 well plate, and the cells were incubated overnight to allow the cells to adhere. The following day an eleven point, serial semilog dilution of each compound was added to the cells in 16 μL at a final concentration ranging from 0.3-0.000003 μM. At 4 or 24 hr post compound addition, the cells were fixed (10% formalin in PBS) for 20 minutes. Cells were permeablized in PBS 0.1% Triton and blocked with LICOR blocking buffer (50 μl/well, 90′). The wells were then incubated overnight at 4° C. with SP1 rabbit monoclonal Ab (Thermo Scientific) diluted 1:1000 in LICOR blocking buffer/0.1% Tween-20. Wells which were treated with blocking buffer with Tween but no antibody were used as a background control. Wells were washed with 0.1% Tween-20/PBS and then incubated in goat anti-rabbit IRDye™ 800CW (LICOR Inc.; 1:10000) and DRAQ5 DNA dye (1:2000 for 2 mM stock) diluted in LICOR blocking buffer containing 0.1% Tween-20 and 0.01% SDS for 60 minutes. Cells were washed (50 μl/well, 5′ each) in 0.1% Tween-20/PBS. Plates were scanned on a LICOR Odyssey infrared imaging system. Integrated intensities in the 800 nm channel and 700 nm channel were measured to determine levels of ER and DNA respectively. Percent ER levels were determined as follows: (Integrated intensity 800 nm sample/integrated intensity 700 nm sample)/(Integrated intensity 800 nm untreated cells/integrated intensity 700 nm untreated cells)×100=% ER levels. […]

MCF-7 cells = assay: Breast Cancer Cell Viability Assays (MCF-7, CellTiter-Glo); format: cell-based; details: 5 days' compound exposure; for IC50: Homo sapiens, MCF7, 120 h
Method: MCF-7 cells were adjusted to a concentration of 20,000 cells per mL in RPMI containing 10% FBS and 20 mM HEPES. 16 microliters of the cell suspension (320 cells) was added to each well of a 384 well plate, and the cells were incubated overnight to allow the cells to adhere. The following day an eleven point, serial semilog dilution of each compound was added to the cells in 16 μL at a final concentration ranging from 0.3-0.000003 μM. After 5 days' compound exposure, 16 μL of CellTiter-GLo (Promega, Madison Wis.) was added to the cells, and the relative luminescence units (RLUs) of each well were determined. CellTiter-Glo added to 32 μL of medium without cells was used to obtain a background value. The Percent viability of each sample was determined as follows: (RLU sample−RLU background/RLU untreated cells−RLU background)×100=% viability. […]

Emax (ER-α in MCF-7 cells): ≥ 40%
DC50 (ER-α in MCF-7 cells): ≤ 100 nM
IC50 (MCF-7 cells): ≤ 100 nM
Structure (SMILES): COc1cccc(/C(=C(\c2ccc(/C=C/C(=O)O)cc2)c2ccc3[nH]nc(F)c3c2)C2CC2)c1 [Example 31, (E)-3-(4-((E)-2-Cyclopropyl-1-(3-fluoro-1H-indazol-5-yl)-2-(3-methoxyphenyl)vinyl)phenyl)acrylic acid]
MCF7 Viability Assay Max Response (MCF-7 cells): ++ (++ = a single % value ≧ 40%)

Emax (ER-α in MCF-7 cells): ≥ 40%
DC50 (ER-α in MCF-7 cells): > 100 nM
IC50 (MCF-7 cells): > 100 nM
Structure (SMILES): CC/C(=C(/c1ccc(/C=C/C(=O)O)cc1)c1cc(F)c2[nH]ncc2c1F)c1ccccc1 [Example 32, (E)-3-(4-((E)-1-(4,7-Difluoro-1H-indazol-5-yl)-2-phenylbut-1-en-1-yl)phenyl)acrylic acid]
MCF7 Viability Assay Max Response (MCF-7 cells): ++ (++ = a single % value ≧ 40%)

Emax (ER-α in MCF-7 cells): ≥ 40%
DC50 (ER-α in MCF-7 cells): ≤ 100 nM
IC50 (MCF-7 cells): ≤ 100 nM
Structure (SMILES): O=C(O)/C=C/c1ccc(/C(=C(\c2ccccc2)C2CCC2)c2ccc3[nH]ncc3n2)cc1 [Example 33, (E)-3-(4-((E)-2-Cyclobutyl-2-phenyl-1-(1H-pyrazolo[4,3-b]pyridin-5-yl)vinyl)phenyl)acrylic acid]
MCF7 Viability Assay Max Response (MCF-7 cells): ++ (++ = a single % value ≧ 40%)

Emax (ER-α in MCF-7 cells): ≥ 40%
DC50 (ER-α in MCF-7 cells): ≤ 100 nM
IC50 (MCF-7 cells): ≤ 100 nM
Structure (SMILES): CC(C)/C(=C(/c1ccc(/C=C/C(=O)O)cc1)c1ccc2[nH]ncc2c1)c1ccccc1Cl [Example 35, (E)-3-(4-((E)-2-(2-Chlorophenyl)-1-(1H-indazol-5-yl)-3-methylbut-1-en-1-yl)phenyl)acrylic acid]
MCF7 Viability Assay Max Response (MCF-7 cells): ++ (++ = a single % value ≧ 40%)

Emax (ER-α in MCF-7 cells): ≥ 40%
DC50 (ER-α in MCF-7 cells): ≤ 100 nM
IC50 (MCF-7 cells): ≤ 100 nM
Structure (SMILES): O=C(O)/C=C/c1ccc(/C(=C(\c2ccccc2)C2CCC2)c2ccc3[nH]nc(F)c3c2)cn1 [Example 36, (E)-3-(5-((Z)-2-Cyclobutyl-1-(3-fluoro-1H-indazol-5-yl)-2-phenylvinyl)pyridin-2-yl)acrylic acid]
MCF7 Viability Assay Max Response (MCF-7 cells): ++ (++ = a single % value ≧ 40%)

Emax (ER-α in MCF-7 cells): ≥ 40%
DC50 (ER-α in MCF-7 cells): ≤ 100 nM
IC50 (MCF-7 cells): ≤ 100 nM
Structure (SMILES): Cc1cc(/C(=C(\c2ccccc2)C2CCC2)c2ccc3[nH]nc(F)c3c2)ccc1/C=C/C(=O)O [Example 37, (E)-3-(4-((E)-2-Cyclobutyl-1-(3-fluoro-1H-indazol-5-yl)-2-phenylvinyl)-2-methylphenyl)acrylic acid]
MCF7 Viability Assay Max Response (MCF-7 cells): ++ (++ = a single % value ≧ 40%)

Emax (ER-α in MCF-7 cells): ≥ 40%
DC50 (ER-α in MCF-7 cells): ≤ 100 nM
IC50 (MCF-7 cells): ≤ 100 nM
Structure (SMILES): N#Cc1ccc(/C(=C(\c2ccc(/C=C/C(=O)O)cc2)c2ccc3[nH]nc(F)c3c2)C2CCC2)c(Cl)c1 [Example 40, (E)-3-(4-((E)-2-(2-Chloro-4-cyanophenyl)-2-cyclobutyl-1-(3-fluoro-1H-indazol-5-yl)vinyl)phenyl)acrylic acid]
MCF7 Viability Assay Max Response (MCF-7 cells): ++ (++ = a single % value ≧ 40%)

Emax (ER-α in MCF-7 cells): ≥ 40%
DC50 (ER-α in MCF-7 cells): ≤ 100 nM
IC50 (MCF-7 cells): ≤ 100 nM
Structure (SMILES): CC/C(=C(/c1ccc(/C=C/C(=O)O)cc1)c1ccc2[nH]ncc2c1)c1cccc(S(=O)(=O)C(F)(F)F)c1 [Example 41, (E)-3-(4-((E)-1-(1H-Indazol-5-yl)-2-(3-((trifluoromethyl)sulfonyl)phenyl)but-1-en-1-yl)phenyl)acrylic acid]
MCF7 Viability Assay Max Response (MCF-7 cells): ++ (++ = a single % value ≧ 40%)

Emax (ER-α in MCF-7 cells): ≥ 40%
DC50 (ER-α in MCF-7 cells): ≤ 100 nM
IC50 (MCF-7 cells): ≤ 100 nM
Structure (SMILES): COc1ccc(/C(=C(\c2ccc(/C=C/C(=O)O)cc2)c2ccc3[nH]nc(F)c3c2)C2CCC2)c(C#N)c1 [Example 44, (E)-3-(4-((E)-2-(2-Cyano-4-methoxyphenyl)-2-cyclobutyl-1-(3-fluoro-1H-indazol-5-yl)vinyl)phenyl)acrylic acid]
MCF7 Viability Assay Max Response (MCF-7 cells): ++ (++ = a single % value ≧ 40%)

Emax (ER-α in MCF-7 cells): ≥ 40%
DC50 (ER-α in MCF-7 cells): ≤ 100 nM
IC50 (MCF-7 cells): ≤ 100 nM
Structure (SMILES): O=C(O)/C=C/c1ccc(/C(=C(\c2cccc(S(=O)(=O)C(F)(F)F)c2)C2CCC2)c2ccc3[nH]nc(F)c3c2)cc1 [Example 45, (E)-3-(4-((E)-2-Cyclobutyl-1-(3-fluoro-1H-indazol-5-yl)-2-(3-((trifluoromethyl)sulfonyl)phenyl)vinyl)phenyl)acrylic acid]
MCF7 Viability Assay Max Response (MCF-7 cells): ++ (++ = a single % value ≧ 40%)

The remaining lines, values behind:

Structure (SMILES): COc1ccc(/C(=C(\c2ccc(/C=C/C(=O)O)cc2)c2ccc3[nH]nc(F)c3c2)C2CC2)cc1 [Example 30, (E)-3-(4-((E)-2-Cyclopropyl-1-(3-fluoro-1H-indazol-5-yl)-2-(4-methoxyphenyl)vinyl)phenyl)acrylic acid]
Emax (ER-α in MCF-7 cells): ≥ 40%
DC50 (ER-α in MCF-7 cells): ≤ 100 nM
MCF7 Viability Assay Max Response (MCF-7 cells): ++ (++ = a single % value ≧ 40%)
IC50 (MCF-7 cells): ≤ 100 nM

Structure (SMILES): O=C(O)/C=C/c1ccc(/C(=C(\c2ccc(F)cc2Cl)C2CCC2)c2ccc3[nH]ncc3n2)cc1 [Example 34, (E)-3-(4-((E)-2-(2-Chloro-4-fluorophenyl)-2-cyclobutyl-1-(1H-pyrazolo[4,3-b]pyridin-5-yl)vinyl)phenyl)acrylic acid]
Emax (ER-α in MCF-7 cells): ≥ 40%
DC50 (ER-α in MCF-7 cells): ≤ 100 nM
MCF7 Viability Assay Max Response (MCF-7 cells): ++ (++ = a single % value ≧ 40%)
IC50 (MCF-7 cells): ≤ 100 nM

Structure (SMILES): COc1cc(/C=C/C(=O)O)ccc1/C(=C(\c1ccccc1)C1CCC1)c1ccc2[nH]nc(F)c2c1 [Example 38, (E)-3-(4-((Z)-2-Cyclobutyl-1-(3-fluoro-1H-indazol-5-yl)-2-phenylvinyl)-3-methoxyphenyl)acrylic acid]
Emax (ER-α in MCF-7 cells): ≥ 40%
DC50 (ER-α in MCF-7 cells): ≤ 100 nM
MCF7 Viability Assay Max Response (MCF-7 cells): ++ (++ = a single % value ≧ 40%)
IC50 (MCF-7 cells): ≤ 100 nM

Structure (SMILES): Fc1n[nH]c2ccc(/C(=C(/c3ccccc3)C3CCC3)c3ccc(/C=C/c4cnc[nH]4)cc3)cc12 [Example 39, 5-((E)-1-(4-((E)-2-(1H-Imidazol-5-yl)vinyl)phenyl)-2-cyclobutyl-2-phenylvinyl)-3-fluoro-1H-indazole]
Emax (ER-α in MCF-7 cells): ≥ 40%
DC50 (ER-α in MCF-7 cells): ≤ 100 nM
MCF7 Viability Assay Max Response (MCF-7 cells): ++ (++ = a single % value ≧ 40%)
IC50 (MCF-7 cells): ≤ 100 nM

Structure (SMILES): COc1ccc(/C(=C(\c2ccc(/C=C/C(=O)O)cc2)c2ccc3[nH]ncc3c2)C2CCC2)c(C#N)c1 [Example 42, (E)-3-(4-((E)-2-(2-Cyano-4-methoxyphenyl)-2-cyclobutyl-1-(1H-indazol-5-yl)vinyl)phenyl)acrylic acid]
Emax (ER-α in MCF-7 cells): ≥ 40%
DC50 (ER-α in MCF-7 cells): ≤ 100 nM
MCF7 Viability Assay Max Response (MCF-7 cells): ++ (++ = a single % value ≧ 40%)
IC50 (MCF-7 cells): ≤ 100 nM

Structure (SMILES): N#Cc1ccc(/C(=C(\c2ccc(/C=C/C(=O)O)cc2)c2ccc3[nH]ncc3c2)C2CCC2)c(Cl)c1 [Example 43, (E)-3-(4-((E)-2-(2-Chloro-4-cyanophenyl)-2-cyclobutyl-1-(1H-indazol-5-yl)vinyl)phenyl)acrylic acid]
Emax (ER-α in MCF-7 cells): ≥ 40%
DC50 (ER-α in MCF-7 cells): ≤ 100 nM
MCF7 Viability Assay Max Response (MCF-7 cells): ++ (++ = a single % value ≧ 40%)
IC50 (MCF-7 cells): ≤ 100 nM

Structure (SMILES): Cc1cnccc1/C(=C(\c1ccc(/C=C/C(=O)O)cc1)c1ccc2[nH]nc(F)c2c1)C1CCC1 [Example 46, (E)-3-(4-((E)-2-Cyclobutyl-1-(3-fluoro-1H-indazol-5-yl)-2-(3-methylpyridin-4-yl)vinyl)phenyl)acrylic acid]
Emax (ER-α in MCF-7 cells): ≥ 40%
DC50 (ER-α in MCF-7 cells): ≤ 100 nM
MCF7 Viability Assay Max Response (MCF-7 cells): ++ (++ = a single % value ≧ 40%)
IC50 (MCF-7 cells): ≤ 100 nM
